In this assay the target is GPR84 (Homo sapiens (Human), UniProt Q9NQS5). The assay is described as follows: Gai biosensor BRET assay (GPR84-mediated activation of Gai, antagonist mode against agonist ZQ-16). Format: cell-based. To be noted: for inhibition at 25 µM: compound tested at 25 μM (concentration code G); for inhibition at 10 µM: compound tested at 10 μM (concentration code D); for inhibition at 15 µM: compound tested at 15 μM (concentration code F); for inhibition at 5 µM: compound tested at 5 μM (concentration code C); for IC50: HEK293 cells, 200 nmol/L GPR84 agonist ZQ-16, read-out: hGPR84 IC50; for inhibition at 1 µM: compound tested at 1 μM (concentration code A*). The text has this: Background—The following assays can be used for determination of GPR84 activation in living HEK293 cells. […] The Gai biosensor consists of a Rluc8-tagged Gαi2 subunit, a GFP10-tagged Gγ2 subunit, and an untagged Gβ1. […] Moreover, signaling functions of GPCRs are tightly regulated by endocytosis, the targeting of receptors to endosomes and their sorting to lysosomes or recycling to the plasma membrane. […] Agonist stimulation of GPR84—Rluc8 leads to trafficking of the receptor to EEs, and ensuing increase of the donor concentration relative to the rGFP-FYVE acceptor anchored in the same cellular compartment, and thus results in an increase in BRET signal.
Plasmids—The cDNA clones for human GPR84 receptor, human Gαi2, Gβ1, and Gγ2 were obtained from the cDNA Resource Center (www.cdna.org). GFP10 (F64L, S147P, S202F and H231L variant of Aequorea victoria Green Fluorescent Protein) gBlocks gene fragments (Integrated DNA Technologies, IA) and linker were inserted in frame at the N-terminus of human Gγ2. Rluc8 (A55T, C124A, S130A, K136R, A143M, M185V, M253L, and S287L variant of the Renilla renformis luciferase) gBlocks gene fragment was inserted with linkers in frame in between residues 91 and 92 of Gαi2 or at the C-terminus of GPR84. The FYVE domain from human endofin (residues Q739 to K806) attached in frame at the C terminus of a humanized Renilla GFP (rGFP), were synthesized as gBlocks gene fragments.
Bioluminescence Resonance Energy Transfer (BRET) Measurement—HEK293 cells were transfected with GPR84—Rluc8 and rGFP-FYVE for the EEs trafficking biosensor or with GPR84, Gαi2—Rluc8, GFP10-Gγ2, and Gβ1 for the Gai biosensor. The following day, transiently transfected cells were seeded in 96-well white clear bottom microplates coated with poly-D-lysine and left in culture for 24 hours. Cells were washed once with Tyrode's buffer (140 mmol/L NaCl, 1 mmol/L CaCl2, 2.7 mmol/L KCl, 0.49 mmol/L MgCl2, 0.37 mmol/L NaH2PO4, 5.6 mmol/L glucose, 12 mmol/L NaHCO3, and 25 mmol/L HEPES, pH 7.5) before performing assays in Tyrode's buffer. Test compounds were incubated with cells for 5 (Gai) or 15 (EEs) minutes at 37° C. before addition of 200 nmol/L of the GPR84 agonist ZQ-16 (2-(Hexylthio)-6-hydroxy-4(3H)-pyrimidinone) for 5 minutes at room temperature (Gai) or 30 minutes at 37° C. (EEs). The Rluc8 substrate coelenterazine 400A (Prolume, Lakeside, AZ) was added at a final concentration of […] and BRET readings were collected using an Infinite M1000 microplate reader (Tecan, Morrisville, NC). BRET^2 readings between Rluc8 and GFP10 or rGFP were collected by sequential integration of the signals detected in the 370 to 450 nm (Rluc8) and 510 to 540 nm (GFP10, rGFP) windows. The BRET signal was calculated as the ratio of light emitted by acceptor (GFP10, rGFP) over the light emitted by donor (Rluc8). The values were corrected to net BRET by subtracting the background BRET signal obtained in cells transfected with Rluc8 constructs alone. Ligand-promoted net BRET values were calculated by subtracting vehicle-induced net BRET from ligand-induced net BRET.
(Bioluminescence resonance energy transfer reports proximity on the nanometre scale.)

The values below come from patent US20250340543A1, “GPR84 ANTAGONISTS AND USES THEREOF” (Liminal BioSciences Limited, priority 2021, published 2025).

The structures appear in SMILES notation.

Sequence of GPR84 (Q9NQS5 whole entry): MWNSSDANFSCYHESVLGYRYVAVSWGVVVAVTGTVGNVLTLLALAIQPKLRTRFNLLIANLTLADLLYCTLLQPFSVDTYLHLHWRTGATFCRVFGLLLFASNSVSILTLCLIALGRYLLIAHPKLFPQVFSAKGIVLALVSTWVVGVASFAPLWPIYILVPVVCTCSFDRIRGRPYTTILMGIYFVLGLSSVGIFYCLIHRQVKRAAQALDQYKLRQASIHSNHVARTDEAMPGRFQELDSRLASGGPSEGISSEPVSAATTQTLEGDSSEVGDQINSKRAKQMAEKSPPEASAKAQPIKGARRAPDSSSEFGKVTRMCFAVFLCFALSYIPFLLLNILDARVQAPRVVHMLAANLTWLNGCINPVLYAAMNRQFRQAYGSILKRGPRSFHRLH

Usually inhibition stands for the percentage by which the read-out fell short of the control. Turning to `FC(F)(F)COc1cccc(-c2cccc(OCC3COCCO3)n2)c1` (centres unmarked) [Compound I-111], the inhibition at 25 µM is under 25%. For `COc1cc(OCC2COCCO2)nc(-c2ccc(OCC(F)(F)F)cc2C)c1C` (centres unmarked) [Compound I-112], the inhibition at 25 µM was under 25%. Regarding `Cc1cc(C#CC2CC2)ccc1Cn1c(C)nc(OCC2COCCO2)cc1=O` (centres unmarked) [Compound I-113], the inhibition at 10 µM was under 25%. As for `Cc1cc(OCC2COCCO2)cc(=O)n1Cc1cccc(OCC(F)(F)F)c1` (centres unmarked) [Compound I-114], the inhibition at 10 µM was under 25%.

In turn, `Cc1ccc(C#CC2CC2)cc1Cn1c(C)cc(OCC2COCCO2)cc1=O` (centres unmarked) [Compound I-115] displayed an inhibition at 10 µM of under 25%. For the compound `Cc1cc(OC[C@H]2COCCO2)cc(=O)n1Cc1ccc(N2CC(C)(C)C2)cc1` [Compound I-116], the inhibition at 10 µM was under 25%. On to `Cc1cc(OCC2COCCO2)cc(=O)n1C(C)c1ccc(C#CCNc2ccccc2)cc1` (centres unmarked) [Compound I-117], for which the inhibition at 10 µM is under 25%. Same read-out and setting: then `Cc1cc(OC[C@H]2COc3ncccc3O2)cc(=O)n1Cc1cccc(C#CC2CC2)c1` [Compound I-118], with under 25%; and `O=c1cc(OCC2COCCO2)nc(-c2ccc(C#CC3CC3)cc2)[nH]1` (centres unmarked) [Compound I-119], with under 25%; and `Cc1cc(OCc2ccccn2)ccc1-c1cc(OCC2COCCO2)[nH]c(=O)c1` (centres unmarked) [Compound I-120], with under 25%. On the same count and under the same terms, then `Cc1cc(OCc2ccccn2)ccc1-c1cc(OCC2COCCO2)n(C)c(=O)c1` (centres unmarked) [Compound I-121], with under 25%; and `Cn1c(-c2ccc(C#CC3CC3)cc2)cc(=O)n(C[C@H]2COCCO2)c1=O` [Compound I-122], with under 25%; and `Cc1cc(OCC2COCCO2)cc(=O)n1Cc1ccc(C#CCNCc2ccccc2)cc1` (centres unmarked) [Compound I-123], with under 25%. For `Cc1ccc(-c2ccc(-c3cc(OCC4CCCCO4)ncn3)cc2)cn1` (centres unmarked) [Compound I-124], the inhibition at 12.5 µM (compound tested at 12.5 μM (concentration code E)) was under 25%. As to `COc1cc(OCC2COCCO2)cc(-c2c(C)cc(OCc3ccccc3)cc2C)n1` (centres unmarked) [Compound I-125], the inhibition at 25 µM is under 25%. For the compound `Cc1cc(C#CC2CC2)ccc1-c1cc(OCC2COCCO2)n(C)c(=O)n1` (centres unmarked) [Compound I-126], the inhibition at 25 µM was under 25%. Same read-out and setting: then `C(#CC1CC1)c1ccc(-c2nccc(OCC3CCCCO3)n2)cc1` (centres unmarked) [Compound I-127], with under 25%; and `C(#CC1CC1)c1ccc(-c2ccnc(OCC3CCCCO3)n2)cc1` (centres unmarked) [Compound I-128], with under 25%; and `FC(F)(F)COc1ccc(-c2cccc(OCC3CCCCO3)n2)cc1` (centres unmarked) [Compound I-129], with under 25%. Still for that read-out and setting: then `COc1cc(OCC2COCCO2)cc(-c2ccc(C#CCNc3ccccc3)cc2)n1` (centres unmarked) [Compound I-130], with under 25%; and `COc1cnc(OCC2COCCO2)c(-c2ccc(OCC(F)(F)F)cc2)c1OC` (centres unmarked) [Compound I-131], with under 25%; and `Cc1ccc(-c2ccc(-c3nccc(OCC4CCCCO4)n3)cc2)cn1` (centres unmarked) [Compound I-133], with under 25%. With `COc1cc(OCC2COCCO2)nc(-c2ccc(OCc3ccccn3)cc2C)n1` (centres unmarked) [Compound I-134], the inhibition at 25 µM was under 25%.

Compound `C(#CC1CC1)c1ccc(-c2cc(OCC3CCCCO3)cnn2)cc1` (centres unmarked) [Compound I-135] gave an inhibition at 25 µM of under 25%. Compound `Cn1c(OCC2COCCO2)cc(-c2ccc(C#CC3CC3)cc2)nc1=O` (centres unmarked) [Compound I-136] yielded an inhibition at 25 µM of under 25%. Still for that read-out and setting: then `CN1CCN(c2cc(OCC3COCCO3)nc(=O)n2C)CC1` (centres unmarked) [Compound I-137], with under 25%. The same measure, in the same setting: then `CC(=O)N1CCN(c2cc(OCC3COCCO3)nc(=O)n2C)CC1` (centres unmarked) [Compound I-138], with under 25%.

`Cc1ccc(-c2ccc(-c3nc(OCC4COCCO4)cc(=O)[nH]3)cc2)cn1` (centres unmarked) [Compound I-139, 6-((1,4-dioxan-2-yl)methoxy)-2-(4-(6-methylpyridin-3-yl)phenyl)pyrimidin-4(3H)-one] registered an inhibition at 25 µM of under 25%. In turn, `Cc1cc(OCC2COCCO2)cc(=O)n1Cc1cc(C#CC2CC2)ccc1F` (centres unmarked) [Compound I-143] showed an inhibition at 10 µM of under 25%. With `Cc1cc(OC[C@H]2CCCCO2)cc(=O)n1[C@H](C)c1ccc(C#CC2CC2)cc1` [Compound I-145], the inhibition at 10 µM was over 75%.

For `Cc1cc(OCC2COCCO2)cc(=O)n1Cc1cccc(N2CC(C)(C)C2)c1` (centres unmarked) [Compound I-146], the inhibition at 10 µM is under 25%. Take `Cc1cc(OCC2COCCO2)cc(=O)n1[C@H](C)c1ccc(C#CCNS(=O)(=O)C2CC2)cc1` (some centres unmarked) [Compound I-149]: the inhibition at 10 µM is under 25%. Compound `FC(F)(F)COc1ccc(-c2cc(OCC3COCCO3)cc3c2OCCO3)cc1` (centres unmarked) [Compound I-155] showed an inhibition at 25 µM of under 25%. The compound `COc1cc(OCC2COCCO2)cc(-c2ccc(OCC(F)(F)F)cc2)c1OC` (centres unmarked) [Compound I-156] showed an inhibition at 25 µM of under 25%. The same measure, in the same setting: then `COc1cc(OCC2COCCO2)cc(-c2ccc(OCC(F)(F)F)cc2)c1C` (centres unmarked) [Compound I-157], with under 25%; and `FC(F)(F)COc1ccc(-c2nc(OCC3COCCO3)cc3c2OCCO3)cc1` (centres unmarked) [Compound I-158], with under 25%. In the case of `FC(F)(F)COc1ccc(-c2c(OCC3COCCO3)ncc3c2OCCO3)cc1` (centres unmarked) [Compound I-159], the inhibition at 25 µM is under 25%. Still for that read-out and setting: then `FC(F)(F)COc1ccc(-c2nc(OCC3COCCO3)cc3c2OCCC3)cc1` (centres unmarked) [Compound I-160], with under 25%; and `FC(F)(F)COc1ccc(-c2cc(Cl)cc(OCC3COCCO3)c2)cc1` (centres unmarked) [Compound I-161], with under 25%. Same read-out and setting: then `CN(C)C(=O)c1cc(OCC2COCCO2)cc(-c2ccc(OCC(F)(F)F)cc2)c1` (centres unmarked) [Compound I-162], with under 25%. `FC(F)(F)COc1ccc(-c2cc(OCC3COCCO3)cc(C3COC3)c2)cc1` (centres unmarked) [Compound I-163] showed an inhibition at 25 µM of under 25%.

`FC(F)(F)COc1ccc(-c2cc(OCC3COCCO3)cc(C3CO3)c2)cc1` (centres unmarked) [Compound I-164] had an inhibition at 15 µM of under 25%. `FC(F)(F)COc1ccc(-c2cc(OCC3COCCO3)cc(C(F)(F)F)c2)cc1` (centres unmarked) [Compound I-165] displayed an inhibition at 25 µM of under 25%. As for `COc1cc(OCC2COCCO2)cc(-c2ccc(OCC(F)(F)F)cc2)c1` (centres unmarked) [Compound I-166], the inhibition at 5 µM was under 25%. The compound `O=c1oc2ccc(-c3ccc(C#CC4CC4)cc3)cc2n1CC1CCCCO1` (centres unmarked) [Compound I-167] came in with an inhibition at 25 µM of under 25%. The compound `Cc1ccc(-c2ccc(-c3ccc4oc(=O)n(CC5CCCCO5)c4c3)cc2)cn1` (centres unmarked) [Compound I-168] displayed an inhibition at 5 µM of under 25%. On to `O=c1oc2ccc(-c3ccc(C#CC4CC4)cc3)cc2n1CC1COCCO1` (centres unmarked) [Compound I-169], for which the inhibition at 25 µM is under 25%. In turn, `C(#CC1CC1)c1ccc(Cc2cccc(OCC3COCCO3)c2)cc1` (centres unmarked) [Compound I-174] registered an inhibition at 25 µM of under 25%.

On to `Cc1ccc(-c2ccc(Cc3cccc(OCC4COCCO4)c3)cc2)cn1` (centres unmarked) [Compound I-176], for which the inhibition at 25 µM is under 25%. As for `O=C(CC1COCCO1)N1Cc2ccc(C#CC3CC3)cc2C1` (centres unmarked) [Compound I-177], the inhibition at 25 µM is under 25%. A word on the IC50: it is the concentration that inhibits the measured activity by half. Turning to `O=C(CC1CCOCC1)N1Cc2ccc(C#CC3CC3)cc2C1` [Compound I-180], the IC50 was over 25 µM and the inhibition at 25 µM fell in the range of 50 to 75%. Turning to `O=C(CC1CCOCC1)N1CCc2cc(C#CC3CC3)ccc2C1` [Compound I-181], the IC50 was over 25 µM and the inhibition at 15 µM was in the range of 25 to 50%. Regarding `O=C(NCC1CCCO1)N1CCc2cc(C#CC3CC3)ccc2C1` (centres unmarked) [Compound I-183], the inhibition at 1 µM is under 25%. The same measure, in the same setting: then `O=C(NCC1CCCO1)N1Cc2ccc(C#CC3CC3)cc2C1` (centres unmarked) [Compound I-184], with under 25%.
